Format in all cases: biochemical
One test concerns the target T1, KRAS G12D (Homo sapiens, UniProt P01116, G12D).
T1 construct: made in house; host or cells: E. coli, e.g. BL21 (DE3)
As to the kind of experiment: HTRF KRAS-SOS1 interaction assay, KRAS G12D. As to conditions: binned ≤2 μM / >2 μM, read-out: Inhibition of KRAS G12D (IC50). The essentials: (§1)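 GST-tagged KRAS (WT or mutant) with anti-GST-Eu donor, mixed with His-hSOS1 and anti-6His-XL665 acceptor. Buffer ~5 mM HEPES pH 7.4, ~150 mM NaCl, ~1 mM DTT, 0.05% BSA, 0.0025% Igepal; incubated about 10 min or longer. HTRF 665/620 ratio, compounds in duplicate up to 10 μM, IC50 derived.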
For orientation: In TR-FRET formats the signal depends on donor and acceptor labels being close together.

The target of a further test is T2, KRAS WT (Homo sapiens, UniProt P01116).
T2 construct: made in house; host or cells: E. coli, e.g. BL21 (DE3)
T2 sequence (P01116 1-188 isoform P01116-2): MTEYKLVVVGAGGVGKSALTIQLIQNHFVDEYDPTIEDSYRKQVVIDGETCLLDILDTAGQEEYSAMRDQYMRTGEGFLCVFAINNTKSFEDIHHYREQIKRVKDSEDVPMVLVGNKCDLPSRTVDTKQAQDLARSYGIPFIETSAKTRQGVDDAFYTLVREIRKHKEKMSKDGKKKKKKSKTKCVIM
In words: HTRF KRAS-SOS1 interaction assay, wildtype KRAS. The settings on record: binned ≤2 μM / >2 μM, read-out: Inhibition of KRAS WT (IC50). The essentials: as §1

For another test, the target named is T3, KRAS G12V (Homo sapiens, UniProt P01116, G12V).
T3 construct: made in house; host or cells: E. coli, e.g. BL21 (DE3)
T3 sequence (P01116 1-188 isoform P01116-2 G12V): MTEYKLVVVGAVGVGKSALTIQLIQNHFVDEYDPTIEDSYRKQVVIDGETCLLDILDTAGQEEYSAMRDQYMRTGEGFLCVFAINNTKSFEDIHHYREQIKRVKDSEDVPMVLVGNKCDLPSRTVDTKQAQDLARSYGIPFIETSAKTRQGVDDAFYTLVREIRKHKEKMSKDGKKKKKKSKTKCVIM
In words: HTRF KRAS-SOS1 interaction assay, KRAS G12V. As to conditions: binned ≤2 μM / >2 μM, read-out: Inhibition of KRAS G12V (IC50). The essentials: as §1

Another test concerns the target T4, KRAS G12S (Homo sapiens, UniProt P01116, G12S).
T4 construct: made in house; host or cells: E. coli, e.g. BL21 (DE3)
As to the kind of experiment: HTRF KRAS-SOS1 interaction assay, KRAS G12S. As to conditions: binned ≤2 μM / >2 μM, read-out: Inhibition of KRAS G12S (IC50). The gist of the method: as §1

The structures appear in SMILES notation.

T4 sequence (P01116 1-188 isoform P01116-2 G12S): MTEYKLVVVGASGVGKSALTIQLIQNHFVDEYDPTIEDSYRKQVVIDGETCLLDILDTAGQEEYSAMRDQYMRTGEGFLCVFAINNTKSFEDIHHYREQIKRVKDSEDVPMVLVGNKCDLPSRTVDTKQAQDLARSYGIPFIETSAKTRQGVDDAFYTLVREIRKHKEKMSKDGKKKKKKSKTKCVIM
T1 sequence (P01116 1-188 isoform P01116-2 G12D): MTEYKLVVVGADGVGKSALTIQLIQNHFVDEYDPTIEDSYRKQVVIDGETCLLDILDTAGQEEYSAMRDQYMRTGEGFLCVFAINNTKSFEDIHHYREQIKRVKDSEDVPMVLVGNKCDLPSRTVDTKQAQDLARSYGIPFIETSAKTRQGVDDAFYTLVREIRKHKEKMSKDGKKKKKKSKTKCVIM

For the compound `COc1cnc(N)c([C@@H](C)N2CCOc3c(C(F)(F)F)c(-c4ccc(F)c5sc(N)c(C#N)c45)c(F)c4nc(OC[C@@]56CCCN5C[C@H](F)C6)nc2c34)c1` [Compound 815, 2-amino-4-(4-((R)-1-(2-amino-5-methoxypyridin-3-yl)ethyl)-10-fluoro-2-(((2R,7aS)-2-fluorotetrahydro-1H-pyrrolizin-7a(5H)-yl)methoxy)-8-(trifluoromethyl)-5,6-dihydro-4H-[1,4]oxazepino[5,6,7-de]quinazolin-9-yl)-7-fluorobenzo[b]thiophene-3-carbonitrile], the IC50 on KRAS G12D, on KRAS WT, at KRAS G12V and on KRAS G12S was at most 2000 nM throughout.

Take `C[C@H](c1cc(F)cnc1N)N1CCOc2c(C(F)(F)F)c(-c3ccc(F)c4sc(N)c(C#N)c34)c(F)c3nc(OC[C@@]45CCCN4CC(=C(F)F)C5)nc1c23` [Compound 675, 2-amino-4-(4-((R)-1-(2-amino-5-fluoropyridin-3-yl)ethyl)-2-(((S)-2-(difluoromethylene)tetrahydro-1H-pyrrolizin-7a(5H)-yl)methoxy)-10-fluoro-8-(trifluoromethyl)-5,6-dihydro-4H-[1,4]oxazepino[5,6,7-de]quinazolin-9-yl)-7-fluorobenzo[b]thiophene-3-carbonitrile]: the IC50 at KRAS G12D, at KRAS WT, on KRAS G12V and at KRAS G12S was at most 2000 nM in each case.

Take `C=CC(F)(F)[C@H](c1cccnc1N)N1CCOc2c(Cl)c(-c3ccc(F)c4sc(N)c(C#N)c34)c(F)c3nc(OC[C@@]45CCCN4C[C@H](F)C5)nc1c23` [Compound 639, 2-amino-4-(4-((S)-1-(2-aminopyridin-3-yl)-2,2-difluorobut-3-en-1-yl)-8-chloro-10-fluoro-2-(((2R,7aS)-2-fluorotetrahydro-1H-pyrrolizin-7a(5H)-yl)methoxy)-5,6-dihydro-4H-[1,4]oxazepino[5,6,7-de]quinazolin-9-yl)-7-fluorobenzo[b]thiophene-3-carbonitrile]: the IC50 on KRAS G12D, on KRAS WT, at KRAS G12V and at KRAS G12S was at most 2000 nM throughout.

In the case of `N#Cc1c(N)sc2c(F)ccc(-c3c(C(F)(F)F)c4c5c(nc(OC[C@@]67CCCN6C[C@H](F)C7)nc5c3F)N([C@H](C/C=C/C(F)(F)F)c3cccnc3N)CCO4)c12` (single isomer, unassigned) [Compound 739], the IC50 at KRAS G12D, at KRAS WT, at KRAS G12V and at KRAS G12S was at most 2000 nM in each case.

Consider `C[C@H](c1cc(C2CC2)cnc1N)N1CCOc2c(Cl)c(-c3ccc(F)c4sc(N)c(C#N)c34)c(F)c3nc(OC[C@@]45CCCN4C[C@H](F)C5)nc1c23` [Compound 738, 2-amino-4-(4-((R)-1-(2-amino-5-cyclopropylpyridin-3-yl)ethyl)-8-chloro-10-fluoro-2-(((2R,7aS)-2-fluorotetrahydro-1H-pyrrolizin-7a(5H)-yl)methoxy)-5,6-dihydro-4H-[1,4]oxazepino[5,6,7-de]quinazolin-9-yl)-7-fluorobenzo[b]thiophene-3-carbonitrile], for which the IC50 on KRAS G12D, at KRAS WT, on KRAS G12V and at KRAS G12S was at most 2000 nM each time.

As for `C[C@H](c1cccnc1N)N1CCOc2c(Cl)c(-c3ccc(F)c4sc(N)c(C#N)c34)c(F)c3nc(OCC45CCCC4CCC5)nc1c23` (single isomer, unassigned) [Compound 674], the IC50 on KRAS G12D, at KRAS WT, on KRAS G12V and at KRAS G12S was above 2000 nM in each case.

As for `C=C1CN2CCC[C@@]2(COc2nc3c4c(c(C(F)(F)F)c(-c5ccc(F)c6sc(N)c(C#N)c56)c(F)c4n2)OCCN3[C@H](C)c2cncnc2N)C1` [Compound 680, 2-amino-4-(4-((R)-1-(4-aminopyrimidin-5-yl)ethyl)-10-fluoro-2-(((S)-2-methylenetetrahydro-1H-pyrrolizin-7a(5H)-yl)methoxy)-8-(trifluoromethyl)-5,6-dihydro-4H-[1,4]oxazepino[5,6,7-de]quinazolin-9-yl)-7-fluorobenzo[b]thiophene-3-carbonitrile], the IC50 on KRAS G12D, on KRAS WT, on KRAS G12V and on KRAS G12S was at most 2000 nM each time.

Consider `CC(c1cccnc1N)N1c2nc(OC[C@@]34CCCN3C[C@H](F)C4)nc3c(F)c(-c4ccc(F)c5sc(N)c(C#N)c45)c(Cl)c(c23)OC[C@@H]1C(F)F` (mixture of isomers) [Compound 790, 2-amino-4-((5R)-4-(1-(2-aminopyridin-3-yl)ethyl)-8-chloro-5-(difluoromethyl)-10-fluoro-2-(((2R,7aS)-2-fluorotetrahydro-1H-pyrrolizin-7a(5H)-yl)methoxy)-5,6-dihydro-4H-[1,4]oxazepino[5,6,7-de]quinazolin-9-yl)-7-fluorobenzo[b]thiophene-3-carbonitrile], for which the IC50 at KRAS G12D, on KRAS WT, on KRAS G12V and at KRAS G12S was at most 2000 nM in each case.

For the origin of these results see patent publication US12668600B2 (Kumquat Biosciences Inc., priority 2023, dated 2026).
